Measured values as given in US7320981B2, “Variolin derivatives as anti-cancer agents” (Pharma Mar, S.A., priority 2000, dated 2008).
Where two headings read alike, the source gives them in different places.

Assays:
[1] = test system: A-549; experiment: SRB cell growth/viability assay, A-549
Source text: (§1) A colorimetric type of assay, using sulforhodamine B (SRB) reaction has been adapted for a quantitative measurement of cell growth and viability: see Skehan, P. A. et al. J. Natl. Cancer Inst., 1990, 82, 1107-1112. This form of the assay employs 96 well cell culture microplates of 9 mm diameter (Faircloth, G. T.; Stewart, D. and Clement, J. J., Journal of Tissue and Culture Methods, 1983, 11, 201-205; Mosmann, T. Journal of Immunological Methods, 1983, 65, 55-63.).
(§2) Most of the cell lines are obtained from American Type Culture Collection (ATCC) derived from different human cancer types. Cells are maintained in RPMI 1640 10% FBS, supplemented with 0.1 g/l penicillin and 0.1 g/l streptomycin sulfate and then incubated at 37° C., 5% CO2 and 98% humidity. For the experiments, cells were harvested from subconfluent cultures using trypsin and resuspended in fresh medium before plating.
(§3) Cells are seeded in 96 well microtiter plates, at 5×10^3 cells per well in aliquots of 195 μl medium, and they are allowed to attach to the plate surface by growing in drug free medium for 18 hours. Afterward, samples are in aliquots of 5 pi in a ranging from 10 to 10-8 μg/ml dissolved in DMSO/EtOH (0.2% in PS buffer). After 48 hours exposure, the antitumour effect are measured by the SRB methodology: cells are fixed by adding 50 μl of cold 50% (w/v) trichloroacetic acid (TCA) and incubating for 60 minutes at 4° C. Plates are washed with deionized water and dried. 100 μl of SRB solution (0.4% w/v in 1% acetic acid) is added to each microtiter well and incubated for 10 minutes at room temperature. Unbound SRB is removed by washing with 1% acetic acid. Plates are air-dried and bound stain is solubilized with Tris buffer. Optical densities are read on an automated spectrophotometric plate reader at a single wavelength of 490 nm.
(§4) The values for mean +/− SD of data from triplicate wells are calculated Some parameters for cellular responses can be calculated: […], TGI=total growth inhibition (cytostatic effect) and LC=cell killing (cytotoxic effect).

[2] = test system: HT-29; experiment: SRB cell growth/viability assay, HT-29
Source text: as §1, §2, §3, §4

[3] = test system: SW-620; experiment: SRB cell growth/viability assay, SW-620; conditions: for GI50 / CC50: Homo sapiens, SW-620, 48 h; for GI50: read-out: GI50 (50% growth inhibition); for CC50: read-out: LC50 (50% net cell killing, cytotoxic effect)
Source text: as §1, §2, §3, §4

[4] = test system: MEL-28; experiment: SRB cell growth/viability assay, MEL-28; conditions: for GI50 / CC50: Homo sapiens, SK-MEL-28, 48 h; for GI50: read-out: GI50 (50% growth inhibition); for CC50: read-out: LC50 (50% net cell killing, cytotoxic effect)
Source text: as §1, §2, §3, §4

[5] = test system: A498; experiment: SRB cell growth/viability assay, A498; conditions: for GI50 / CC50: Homo sapiens, A498, 48 h; for GI50: read-out: GI50 (50% growth inhibition); for CC50: read-out: LC50 (50% net cell killing, cytotoxic effect)
Source text: as §1, §2, §3, §4

[6] = test system: DU-145; experiment: SRB cell growth/viability assay, DU-145; conditions: for GI50 / CC50: Homo sapiens, DU-145, 48 h; for GI50: read-out: GI50 (50% growth inhibition); for CC50: read-out: LC50 (50% net cell killing, cytotoxic effect)
Source text: as §1, §2, §3, §4

[7] = test system: MCF-7; experiment: SRB cell growth/viability assay, MCF-7; conditions: for GI50 / CC50: Homo sapiens, MCF7, 48 h; for GI50: read-out: GI50 (50% growth inhibition); for CC50: read-out: LC50 (50% net cell killing, cytotoxic effect)
Source text: as §1, §2, §3, §4

[8] = test system: MB-231; experiment: SRB cell growth/viability assay, MB-231; conditions: for GI50 / CC50: Homo sapiens; for GI50: read-out: GI50 (50% growth inhibition); for CC50: read-out: LC50 (50% net cell killing, cytotoxic effect)
Source text: as §1, §2, §3, §4

[9] = test system: OVCAR-3; experiment: cells; format: cell-based
Source text: Plates are washed with deionized water and dried.

[10] = Homo sapiens, A549, 48 h, read-out: A-549 GI50
[11] = Homo sapiens, A549, 48 h, read-out: A-549 LC50
[12] = Homo sapiens, A549, 48 h, read-out: GI50 (50% growth inhibition)
[13] = Homo sapiens, A549, 48 h, read-out: LC50 (50% net cell killing, cytotoxic effect)
[14] = Homo sapiens, HT-29, 48 h, read-out: GI50 (50% growth inhibition)
[15] = Homo sapiens, HT-29, 48 h, read-out: HT-29 GI50
[16] = Homo sapiens, HT-29, 48 h, read-out: HT-29 LC50
[17] = Homo sapiens, HT-29, 48 h, read-out: LC50 (50% net cell killing, cytotoxic effect)

Nc1nccc(-c2c3c(O)ccnc3n3c(N)nccc23)n1 [Compound 1, Variolin B]
TGI (total growth inhibition, cytostatic effect) ([1]; 48 h): 1.E−06 M
GI50 [1, 10]: 170 nM
CC50 [1, 11]: 170000 nM
GI50 [1, 12]: 700 nM
CC50 [1, 13]: 3000 nM
A-549 TGI ([1]; Table 2, A-549, 48 hours exposure, SRB): 6.8 10^−7 M
TGI (total growth inhibition, cytostatic effect) ([2]; 48 h): 1.E−06 M
GI50 [2, 14]: 700 nM
GI50 [2, 15]: 1000 nM
CC50 [2, 16]: > 170000 nM
CC50 [2, 17]: 3000 nM
HT-29 TGI ([2]; Table 2, HT-29, 48 hours exposure, SRB): 1.7 10^−5 M
TGI (total growth inhibition, cytostatic effect) ([3]; 48 h): 3.E−07 M
GI50 [3]: 100 nM
CC50 [3]: 2000 nM
TGI (total growth inhibition, cytostatic effect) ([4]; 48 h): 1.E−06 M
GI50 [4]: 700 nM
CC50 [4]: 2000 nM
TGI (total growth inhibition, cytostatic effect) ([5]; 48 h): 3.E−07 M
GI50 [5]: 100 nM
CC50 [5]: 2000 nM
TGI (total growth inhibition, cytostatic effect) ([6]; 48 h): 3.E−07 M
GI50 [6]: 100 nM
CC50 [6]: 1000 nM
TGI (total growth inhibition, cytostatic effect) ([7]; 48 h): 2.E−06 M
GI50 [7]: 700 nM
CC50 [7]: 2000 nM
TGI (total growth inhibition, cytostatic effect) ([8]; 48 h): 1.E−06 M
GI50 ([8]; 48 h): 300 nM
CC50 ([8]; 48 h): 3000 nM

Nc1nccc(-c2c3cccnc3n3c(N)nccc23)n1 [Compound 4, deoxyvariolin B]
GI50 [1, 12]: 100 nM
CC50 [1, 13]: 400 nM
TGI (total growth inhibition, cytostatic effect) ([1]; Table 1, NSCL cell line A-549, 48 hours exposure, SRB): 2.E−07 M
GI50 [2, 14]: 70 nM
CC50 [2, 17]: 10000 nM
TGI (total growth inhibition, cytostatic effect) ([2]; Table 1, colon cell line HT-29, 48 hours exposure, SRB): 2.E−07 M
GI50 [3]: 70 nM
CC50 [3]: 10000 nM
TGI (total growth inhibition, cytostatic effect) ([3]; Table 1, colon cell line SW-620, 48 hours exposure, SRB): 3.E−07 M
GI50 [4]: 70 nM
CC50 [4]: 300 nM
TGI (total growth inhibition, cytostatic effect) ([4]; Table 1, melanoma cell line MEL-28, 48 hours exposure, SRB): 1.E−07 M
CC50 ([9]; Homo sapiens, OVCAR-3, 48 h, read-out: LC50 (50% net cell killing, cytotoxic effect)): 400 nM
GI50 ([9]; Homo sapiens, Table 1, ovary cell line OVCAR-3, 48 hours exposure, SRB, read-out: GI50 (50% growth inhibition)): 100 nM
TGI (total growth inhibition, cytostatic effect) ([9]; Table 1, ovary cell line OVCAR-3, 48 hours exposure, SRB): 3.E−07 M
GI50 [5]: 70 nM
CC50 [5]: 700 nM
TGI (total growth inhibition, cytostatic effect) ([5]; Table 1, kidney cell line A498, 48 hours exposure, SRB): 2.E−07 M
GI50 [6]: 100 nM
CC50 [6]: 7000 nM
TGI (total growth inhibition, cytostatic effect) ([6]; Table 1, prostate cell line DU-145, 48 hours exposure, SRB): 3.E−07 M
GI50 [7]: 100 nM
CC50 [7]: 4000 nM
TGI (total growth inhibition, cytostatic effect) ([7]; Table 1, breast cell line MCF-7, 48 hours exposure, SRB): 3.E−07 M
GI50 ([8]; 48 h): 70 nM
CC50 ([8]; 48 h): 30000 nM
TGI (total growth inhibition, cytostatic effect) ([8]; Table 1, breast cell line MB-231, 48 hours exposure, SRB): 3.E−07 M

CS(=O)(=O)c1nccc(-c2c3cccnc3n3c(N)nccc23)n1 [Compound 6, sulfonyldeoxyvariolin]
GI50 [1, 10]: 4400 nM
CC50 [1, 11]: > 150000 nM
GI50 [2, 15]: 29000 nM
CC50 [2, 16]: > 150000 nM

CSc1nccc(-c2c3cccnc3n3c(SC)nccc23)n1 [Compound 19]
GI50 [1, 10]: 5900 nM
CC50 [1, 11]: 29000 nM
GI50 [2, 15]: 5900 nM
CC50 [2, 16]: 29000 nM

C[S+]([O-])c1nccc(-c2c3cccnc3n3c(N)nccc23)n1 (stereo not drawn) [Compound 22, sulfinyldeoxyvariolin]
GI50 [1, 10]: 1200 nM
CC50 [1, 11]: 92000 nM
GI50 [2, 15]: 920 nM
CC50 [2, 16]: > 150000 nM

CC(=O)N(C(C)=O)c1nccc(-c2c3cccnc3n3c(N)nccc23)n1 [Compound 23a, N′-bisacetyldeoxyvariolin]
GI50 [1, 10]: 280 nM
CC50 [1, 11]: 2800 nM
GI50 [2, 15]: 140 nM
CC50 [2, 16]: 2800 nM

CC(=O)Nc1nccc2c(-c3ccnc(N(C(C)=O)C(C)=O)n3)c3cccnc3n12 [Compound 23b, N′-bisacetyl-N-acetyldeoxyvariolin]
GI50 [1, 10]: 740 nM
CC50 [1, 11]: 7400 nM
GI50 [2, 15]: 100 nM
CC50 [2, 16]: 2500 nM

CC(=O)N(C(C)=O)c1nccc(-c2c3cccnc3n3c(N(C(C)=O)C(C)=O)nccc23)n1 [Compound 23c, N′-bisacetyl-N-bisacetyldeoxyvariolin]
GI50 [1, 10]: 2200 nM
CC50 [1, 11]: 22000 nM
GI50 [2, 15]: 1100 nM
CC50 [2, 16]: 18000 nM

CC(=O)Nc1nccc(-c2c3cccnc3n3c(N)nccc23)n1 [Compound 23d, N′-acetyldeoxyvariolin]
GI50 [1, 10]: 630 nM
CC50 [1, 11]: 3200 nM
GI50 [2, 15]: 630 nM
CC50 [2, 16]: 3200 nM

CC(=O)Nc1nccc(-c2c3cccnc3n3c(NC(C)=O)nccc23)n1 [Compound 23e, N′-acetyl-N-acetyldeoxyvariolin]
GI50 [1, 10]: 2200 nM
CC50 [1, 11]: 28000 nM
GI50 [2, 15]: 5500 nM
CC50 [2, 16]: > 28000 nM

Nc1nccc2c(-c3ccnc(N(C(=O)/C=C/c4ccccc4)C(=O)/C=C/c4ccccc4)n3)c3cccnc3n12 [Compound 24a, N′-biscinnamoyldeoxyvariolin]
GI50 [1, 10]: 120 nM
CC50 [1, 11]: 12000 nM
GI50 [2, 15]: 4900 nM
CC50 [2, 16]: > 120000 nM

O=C(C=Cc1ccccc1)Nc1nccc2c(-c3ccnc(N(C(=O)/C=C/c4ccccc4)C(=O)/C=C/c4ccccc4)n3)c3cccnc3n12 [Compound 24b, N′-biscinnamoyl-N-cinnamoyldeoxyvariolin]
GI50 [1, 10]: 3000 nM
CC50 [1, 11]: 75000 nM
GI50 [2, 15]: 1500 nM
CC50 [2, 16]: 75000 nM

Nc1nccc2c(-c3ccnc(NC(=O)C(F)(F)F)n3)c3cccnc3n12 [Compound 26, N′-trifluoroacetyldeoxyvariolin]
GI50 [1, 10]: 270 nM
CC50 [1, 11]: 27000 nM
GI50 [2, 15]: 800 nM
CC50 [2, 16]: 110000 nM

COc1nccc(-c2c3cccnc3n3c(N)nccc23)n1 [Compound 27, methoxydeoxyvariolin]
GI50 [1, 10]: 68 nM
CC50 [1, 11]: 2700 nM
GI50 [2, 15]: 170 nM
CC50 [2, 16]: 34000 nM

Nc1nccc2c(-c3ccnc(N4CCCCC4)n3)c3cccnc3n12 [Compound 28a, piperidinyldeoxyvariolin]
GI50 [1, 10]: 8700 nM
CC50 [1, 11]: > 29000 nM
GI50 [2, 15]: 5800 nM
CC50 [2, 16]: > 29000 nM

CCNc1nccc(-c2c3cccnc3n3c(N)nccc23)n1 [Compound 28b, N′-ethyldeoxyvariolin]
GI50 [1, 10]: > 33000 nM
CC50 [1, 11]: > 33000 nM
GI50 [2, 15]: > 33000 nM
CC50 [2, 16]: > 33000 nM

CCCCN(C)c1nccc(-c2c3cccnc3n3c(N)nccc23)n1 [Compound 28c, N′-butylmethyldeoxyvariolin]
GI50 [1, 10]: 2900 nM
CC50 [1, 11]: 23000 nM
GI50 [2, 15]: 2900 nM
CC50 [2, 16]: 23000 nM

Nc1nccc2c(-c3ccnc(NCc4ccccc4)n3)c3cccnc3n12 [Compound 28d, N′-benzyldeoxyvariolin]
GI50 [1, 10]: 1400 nM
CC50 [1, 11]: 27000 nM
GI50 [2, 15]: 1400 nM
CC50 [2, 16]: 22000 nM

COc1ccc(CNc2nccc(-c3c4cccnc4n4c(NCc5ccc(OC)cc5)nccc34)n2)cc1 [Compound 29, N′,N-bis(p-methoxybenzyl)deoxyvariolin]
GI50 [1, 10]: > 97000 nM
CC50 [1, 11]: > 97000 nM
GI50 [2, 15]: > 97000 nM
CC50 [2, 16]: > 97000 nM

bis-sulfinyldeoxyvariolin [Compound 20]
CC50 [1]: > 130000 nM
GI50 ([1]; read-out: A-549 GI50, Table 2, A-549, 48 hours exposure, SRB): 54000 nM
CC50 [2]: > 130000 nM
GI50 ([2]; read-out: HT-29 GI50, Table 2, HT-29, 48 hours exposure, SRB): 110000 nM
